Assay [1] has as its target T1, F508del-CFTR (Homo sapiens, UniProt P13569, DEL508-508). Briefly: HS-YFP kinetic fluorescence (iodide quenching rate) assay in CFBE41o− cells. It counts as cell-based. Also on record: expressed in transfected cells; host or cells: CFBE41o- cells with expression of F508del-CFTR and HS-YFP (generated as in Sondo et al. 2011). The settings on record: for AI (%) additivity index: Table 1, compound at 10 μM plus VX-809, (QRTOT − QRVX)/QRVX, HS-YFP assay; for structure-activity comparison of corrector potency/activity: relative to the analogue. The essentials: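 CFBE41o- cells co-expressing F508del-CFTR and HS-YFP, treated 24 h with compound (0.1-0.2% DMSO), then stimulated with 20 μM forskolin plus 50 μM genistein. Fluorescence was read for 14 s during NaI injection. Background-subtracted, normalized traces were fitted exponentially to give maximum quenching rate (QR).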

In assay [2] the target is T1, F508del-CFTR. Briefly: Analysis of F508del-CFTR maturation by immunoblot in CFBE41o− cells. The settings on record: compound 10 μM plus VX-809 1 μM, 24 hr. More on the design: expressed in transfected cells; host or cells: CFBE41o- cells with expression of F508del-CFTR and HS-YFP (generated as in Sondo et al. 2011). It counts as cell-based. As for the experimental part:
CFBE41o− cells were grown to confluence on 60-mm diameter dishes and lysed in RIPA buffer containing a complete protease inhibitor (Roche; cat. n. 11697498001). Cell lysates were centrifuged at 12000 rpm at 4° C. for 10 min. Supernatant protein concentration was calculated using the BCA assay (Euroclone; cat. n. EMP014500) following the manufacturer's instructions. Equal amounts of total protein content (30 μg) were separated onto 10% Criterion TGX Precast gels (Bio-rad laboratories Inc.; cat. n. 4561033), transferred to nitrocellulose membrane with Trans-Blot Turbo system (Bio-rad Laboratories Inc.) and analyzed by Western blotting. Primary antibody for CFTR was anti-CFTR 596 (University of North Carolina at Chapel Hill, and Cystic Fibrosis Foundation Therapeutics, see Cui L, et al. J. Mol Biol 2007, 365, 981-994) at 1:5000 dilution. As secondary antibody, anti-mouse HRP-conjugated Ab 97023 (Abcam) was used at 1:10000 dilution. Results were subsequently visualized by chemiluminescence using the SuperSignal West Femto Substrate (Thermo Scientific) and the Molecular Imager ChemiDoc XRS System.
To analyze the mechanism of action of the compounds of the invention, two types of experiments were carried out. In the first type of experiment, the electrophoretic mobility of F508del-CFTR protein was determined by immunoblot assay. This is a frequently used method to assess the effect of correctors at the protein level. In control conditions, F508del-CFTR migrates predominantly as a single band of 150 kDa called “band B”. This is the immature form of the protein residing in the endoplasmic reticulum. When the protein folding and stability is improved by correctors, an additional band appears at higher molecular weight (170 kDa). This is the so-called band C, which represents the mature form of the CFTR protein that has reached the Golgi compartment and acquired full glycosylation.

Each structure is given as a SMILES string. “Also recorded” adds a separate entry of the source.

T1 sequence (P13569 with tags, fused parts or gaps DEL508-508): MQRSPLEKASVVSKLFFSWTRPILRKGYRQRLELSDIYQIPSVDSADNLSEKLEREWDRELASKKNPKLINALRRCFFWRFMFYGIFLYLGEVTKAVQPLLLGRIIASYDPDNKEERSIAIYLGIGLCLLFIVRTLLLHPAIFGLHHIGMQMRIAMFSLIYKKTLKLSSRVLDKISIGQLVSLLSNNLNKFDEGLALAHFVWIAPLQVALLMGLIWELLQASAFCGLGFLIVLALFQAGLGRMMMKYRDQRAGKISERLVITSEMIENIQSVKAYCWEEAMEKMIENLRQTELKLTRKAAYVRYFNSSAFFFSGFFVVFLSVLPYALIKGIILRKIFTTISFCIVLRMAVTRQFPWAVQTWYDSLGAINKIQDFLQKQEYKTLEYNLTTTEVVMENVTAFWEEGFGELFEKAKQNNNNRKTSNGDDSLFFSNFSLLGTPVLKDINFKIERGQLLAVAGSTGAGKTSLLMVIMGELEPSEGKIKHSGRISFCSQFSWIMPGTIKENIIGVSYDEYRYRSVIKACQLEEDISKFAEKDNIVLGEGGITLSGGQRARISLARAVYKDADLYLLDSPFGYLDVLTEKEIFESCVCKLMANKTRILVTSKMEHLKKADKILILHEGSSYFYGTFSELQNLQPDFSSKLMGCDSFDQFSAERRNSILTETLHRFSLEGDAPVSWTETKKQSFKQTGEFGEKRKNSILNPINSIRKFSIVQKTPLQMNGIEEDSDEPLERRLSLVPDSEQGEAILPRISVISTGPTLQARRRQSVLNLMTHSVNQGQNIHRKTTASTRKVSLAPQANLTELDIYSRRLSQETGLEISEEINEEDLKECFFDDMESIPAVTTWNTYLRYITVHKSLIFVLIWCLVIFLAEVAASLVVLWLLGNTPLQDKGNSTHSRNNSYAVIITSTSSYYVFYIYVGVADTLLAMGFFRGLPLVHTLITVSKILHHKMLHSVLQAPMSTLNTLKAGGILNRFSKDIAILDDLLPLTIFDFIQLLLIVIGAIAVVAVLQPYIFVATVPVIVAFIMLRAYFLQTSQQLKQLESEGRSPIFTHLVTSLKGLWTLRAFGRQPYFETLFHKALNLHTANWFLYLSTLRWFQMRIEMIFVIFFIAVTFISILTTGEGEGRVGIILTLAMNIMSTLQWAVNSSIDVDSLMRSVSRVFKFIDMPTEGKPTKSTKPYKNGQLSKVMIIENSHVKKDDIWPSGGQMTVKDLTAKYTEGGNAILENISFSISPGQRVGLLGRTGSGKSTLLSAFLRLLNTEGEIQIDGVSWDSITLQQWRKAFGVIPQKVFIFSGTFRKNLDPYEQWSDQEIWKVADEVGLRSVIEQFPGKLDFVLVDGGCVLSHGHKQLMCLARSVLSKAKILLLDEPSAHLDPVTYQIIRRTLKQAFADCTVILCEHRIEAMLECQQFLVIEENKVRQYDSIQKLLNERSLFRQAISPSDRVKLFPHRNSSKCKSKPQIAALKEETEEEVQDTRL

Regarding `CCOC(=O)c1c(Br)c2c(n1Cc1ccc(C)cc1)-c1[nH]c(=O)c(S(=O)(=O)c3ccccc3)cc1CC2` [PP008, Ethyl 7-(benzenesulfonyl)-3-bromo-1-[(4-methylphenyl)methyl]-8-oxo-4,5,8,9-tetrahydro-1H-pyrrolo[3,2-h]quinoline-2-carboxylate], in assay [1], the “AI (%) additivity index” value was 207% and the “structure-activity comparison of corrector potency/activity” value was “important increase in potency; also recorded: more potent than the non-halogenated analogues”. Besides, the “F508del-CFTR activity (quenching rate) of combination with VX-809” value in assay [1] (compound plus VX-809 1 μM, 24 h) is given as “strong synergistic effect”. In assay [2], the “band C (mature form) expression versus VX-809 alone” value was “markedly enhances the abundance of the mature form of the protein; also recorded: marked increase in band C expression”.

Regarding `CCOC(=O)c1c(Br)c2c(n1Cc1cccc(C)c1)-c1[nH]c(=O)c(S(=O)(=O)c3ccccc3)cc1CC2` [PP028, Ethyl 3-bromo 1-(3-methylbenzyl)-8-oxo-7-(phenylsulfonyl)-4,5,8,9-tetrahydro-1H-pyrrolo[3,2-h]quinoline-2-carboxylate], in assay [1], the “AI (%) additivity index” value was determined as 278%; the “structure-activity comparison of corrector potency/activity” value was “important increase in efficiency in combination with the VX-809 and potency”. In assay [2], the “band C (mature form) expression versus VX-809 alone” value is reported as “markedly enhances the abundance of the mature form of the protein; also recorded: marked increase in band C expression”.

The record behind these values is patent US12410164B2, “Heterocyclic compounds and medical use thereof” (FONDAZIONE TELETHON, priority 2018, dated 2025).
